Reference: ChEMBL document CHEMBL1201861, “Genomics of Drug Sensitity in Cancer screening data, Wellcome Trust Sanger Institute”

Assays:
Assay in all cases: cells
Conditions in all cases: Homo sapiens
LNCaP-Clone-FGC = type: functional, cell-based
Description: SANGER: Inhibition of human LNCaP-Clone-FGC cell growth in a cell viability assay.

C2BBe1 = type: functional, cell-based;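 further: growth inhibition of C2BBe1 cells, read out through a viability assay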
Description: SANGER: Inhibition of human C2BBe1 cell growth in a cell viability assay.

NTERA-2-cl-D1 = type: functional, cell-based;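 further: inhibition of cell growth, measured with a cell viability assay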
Description: SANGER: Inhibition of human NTERA-S-cl-D1 cell growth in a cell viability assay.

KNS-42 = type: functional, cell-based;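 further: growth inhibition of KNS-42 cells, read out with a cell viability assay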
Description: SANGER: Inhibition of human KNS-42 cell growth in a cell viability assay.

CCRF-CEM = type: functional, cell-based;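 further: inhibition of CCRF-CEM cell growth, measured by a cell viability assay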
Description: SANGER: Inhibition of human CCRF-CEM cell growth in a cell viability assay.

SNU-5 = type: functional, cell-based;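 further: cell viability readout used to measure growth inhibition in human NCI-SNU-5 cells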
Description: SANGER: Inhibition of human NCI-SNU-5 cell growth in a cell viability assay.

KM12 = type: functional, cell-based;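 further: KM12 cell growth inhibition, read out with a cell viability assay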
Description: SANGER: Inhibition of human KM12 cell growth in a cell viability assay.

LB1047-RCC = type: functional, cell-based;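 further: inhibition of cell growth, determined with a cell viability assay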
Description: SANGER: Inhibition of human LB1047-RCC cell growth in a cell viability assay.

L-428 = type: functional, cell-based
Description: SANGER: Inhibition of human L-428 cell growth in a cell viability assay.

OS-RC-2 = type: functional, cell-based;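 further: growth inhibition of human OS-RC-2 cells, measured by a cell viability assay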
Description: SANGER: Inhibition of human OS-RC-2 cell growth in a cell viability assay.

TE-6 = type: functional, cell-based;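 further: growth inhibition of TE-6 cells, read out with a cell viability assay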
Description: SANGER: Inhibition of human TE-6 cell growth in a cell viability assay.

TE-11 = type: functional, cell-based;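 further: growth inhibition of human TE-11 cells, read out by a cell viability assay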
Description: SANGER: Inhibition of human TE-11 cell growth in a cell viability assay.

MHH-NB-11 = type: functional, cell-based;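 further: growth inhibition of human MHH-NB-11 cells, read out by a cell viability assay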
Description: SANGER: Inhibition of human MHH-NB-11 cell growth in a cell viability assay.

A498 = type: functional, cell-based;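 further: growth inhibition of human A498 cells, read out with a cell viability assay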
Description: SANGER: Inhibition of human A498 cell growth in a cell viability assay.

EW-1 = type: functional, cell-based
Description: SANGER: Inhibition of human EW-1 cell growth in a cell viability assay.

KM-H2 = type: functional, cell-based;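 further: growth inhibition of KM-H2 cells, read out by a cell viability assay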
Description: SANGER: Inhibition of human KM-H2 cell growth in a cell viability assay.

SK-LMS-1 = type: functional, cell-based;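 further: growth inhibition of human SK-LMS-1 cells, read out with a cell viability assay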
Description: SANGER: Inhibition of human SK-LMS-1 cell growth in a cell viability assay.

BE-13 = type: functional, cell-based;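 further: growth inhibition of human BE-13 cells, measured with a cell viability assay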
Description: SANGER: Inhibition of human BE-13 cell growth in a cell viability assay.

HuTu80 = type: functional, cell-based, HUTU-80;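 further: growth inhibition of HuTu80 human cells, determined with a cell viability readout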
Description: SANGER: Inhibition of human HUTU-80 cell growth in a cell viability assay.

IST-MEL1 = type: functional, cell-based;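 further: growth inhibition of the cell line, read out with a cell viability assay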
Description: SANGER: Inhibition of human IST-MEL1 cell growth in a cell viability assay.

RH-1 = type: functional, cell-based;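 further: growth inhibition of human RH-1 cells, read out with a cell viability assay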
Description: SANGER: Inhibition of human RH-1 cell growth in a cell viability assay.

ES5 = type: functional, cell-based;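 further: growth inhibition of human ES5 cells, read out by a cell viability assay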
Description: SANGER: Inhibition of human ES5 cell growth in a cell viability assay.

NCI-H82 = type: functional, cell-based;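 further: growth inhibition of NCI-H82 cells, measured with a cell viability readout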
Description: SANGER: Inhibition of human NCI-H82 cell growth in a cell viability assay.

BV-173 = type: functional, cell-based
Description: SANGER: Inhibition of human BV-173 cell growth in a cell viability assay.

C8166 = type: functional, cell-based;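 further: growth inhibition of human C8166 cells measured by a cell viability assay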
Description: SANGER: Inhibition of human C8166 cell growth in a cell viability assay.

KMOE-2 = type: functional, cell-based;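 further: growth inhibition of human KMOE-2 cells, read out with a cell viability assay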
Description: SANGER: Inhibition of human KMOE-2 cell growth in a cell viability assay.

A388 = type: functional, cell-based;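 further: growth inhibition of human A388 cells, read out with a cell viability assay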
Description: SANGER: Inhibition of human A388 cell growth in a cell viability assay.

KARPAS-45 = type: functional, cell-based;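 further: inhibition of cell line growth, read out through a viability assay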
Description: SANGER: Inhibition of human KARPAS-45 cell growth in a cell viability assay.

KY821 = type: functional, cell-based;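 further: growth inhibition of human KY821 cells, read out by a cell viability assay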
Description: SANGER: Inhibition of human KY821 cell growth in a cell viability assay.

NOMO-1 = type: functional, cell-based;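 further: growth inhibition of human NOMO-1 cells measured by a cell viability assay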
Description: SANGER: Inhibition of human NOMO-1 cell growth in a cell viability assay.

DSH1 = type: functional, cell-based;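 further: growth inhibition of human DSH1 cells, measured with a cell viability readout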
Description: SANGER: Inhibition of human DSH1 cell growth in a cell viability assay.

LXF-289 cell line = type: functional, cell-based
Description: SANGER: Inhibition of human LXF-289 cell growth in a cell viability assay.

BB49-HNC = type: functional, cell-based;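 further: cell viability assay read-out, reported as inhibition of BB49-HNC cell growth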
Description: SANGER: Inhibition of human BB49-HNC cell growth in a cell viability assay.

COLO-684 = type: functional, cell-based
Description: SANGER: Inhibition of human COLO-684 cell growth in a cell viability assay.

MMAC-SF = type: functional, cell-based;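 further: growth inhibition of human MMAC-SF cells, read out with a cell viability assay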
Description: SANGER: Inhibition of human MMAC-SF cell growth in a cell viability assay.

OCUB-M = type: functional, cell-based;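 further: growth inhibition of the cancer cell line, read out through a cell viability assay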
Description: SANGER: Inhibition of human OCUB-M cell growth in a cell viability assay.

SCH = type: functional, cell-based;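 further: growth inhibition of human SCH cells, read out in a cell viability assay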
Description: SANGER: Inhibition of human SCH cell growth in a cell viability assay.

ETK-1 = type: functional, cell-based;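 further: growth inhibition of human ETK-1 cells, read out with a cell viability assay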
Description: SANGER: Inhibition of human ETK-1 cell growth in a cell viability assay.

COLO-824 = type: functional, cell-based
Description: SANGER: Inhibition of human COLO-824 cell growth in a cell viability assay.

KS-1 = type: functional, cell-based;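 further: growth inhibition of KS-1 cells, read out with a cell viability assay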
Description: SANGER: Inhibition of human KS-1 cell growth in a cell viability assay.

LB831-BLC = type: functional, cell-based;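 further: growth inhibition of LB831-BLC cells, read out with a cell viability assay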
Description: SANGER: Inhibition of human LB831-BLC cell growth in a cell viability assay.

EW-13 = type: functional, cell-based;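 further: growth inhibition of EW-13 cells, read out with a cell viability assay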
Description: SANGER: Inhibition of human EW-13 cell growth in a cell viability assay.

MEG-01 = type: functional, cell-based;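 further: growth inhibition of MEG-01 cells, read out by a cell viability assay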
Description: SANGER: Inhibition of human MEG-01 cell growth in a cell viability assay.

MN-60 = type: functional, cell-based;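 further: growth inhibition of the MN-60 cell line, determined with a cell viability assay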
Description: SANGER: Inhibition of human MN-60 cell growth in a cell viability assay.

Mo = type: functional, cell-based
Description: SANGER: Inhibition of human Mo-T cell growth in a cell viability assay.

SK-UT-1 = type: functional, cell-based;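 further: growth inhibition of SK-UT-1 cells, measured by a cell viability assay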
Description: SANGER: Inhibition of human SK-UT-1 cell growth in a cell viability assay.

RCC10RGB = type: functional, cell-based;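 further: growth inhibition of human RCC10RGB cells, read out by a cell viability assay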
Description: SANGER: Inhibition of human RCC10RGB cell growth in a cell viability assay.

DOHH-2 = type: functional, cell-based;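 further: growth inhibition of human DOHH-2 cells, read out with a cell viability assay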
Description: SANGER: Inhibition of human DOHH-2 cell growth in a cell viability assay.

KE-37 = type: functional, cell-based;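 further: growth inhibition of KE-37 cells, read out with a cell viability assay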
Description: SANGER: Inhibition of human KE-37 cell growth in a cell viability assay.

8-MG-BA = type: functional, cell-based;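 further: growth inhibition of 8-MG-BA cells, read out with a cell viability assay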
Description: SANGER: Inhibition of human 8-MG-BA cell growth in a cell viability assay.

MFM-223 = type: functional, cell-based
Description: SANGER: Inhibition of human MFM-223 cell growth in a cell viability assay.

GT3TKB = type: functional, cell-based;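 further: growth inhibition of the cell line, read out with a cell viability assay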
Description: SANGER: Inhibition of human GT3TKB cell growth in a cell viability assay.

A704 = type: functional, cell-based;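 further: growth inhibition of human A704 cells, read out with a cell viability assay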
Description: SANGER: Inhibition of human A704 cell growth in a cell viability assay.

COR-L88 = type: functional, cell-based;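 further: growth inhibition of COR-L88 cells, read out with a cell viability assay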
Description: SANGER: Inhibition of human COR-L88 cell growth in a cell viability assay.

NCI-H1304 = type: functional, cell-based;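 further: growth inhibition of the cancer cell line, measured in a cell viability assay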
Description: SANGER: Inhibition of human NCI-H1304 cell growth in a cell viability assay.

A3-KAW = type: functional, cell-based;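 further: growth inhibition of human A3-KAW cells, read out with a cell viability assay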
Description: SANGER: Inhibition of human A3-KAW cell growth in a cell viability assay.

BT-474 = type: functional, cell-based
Description: SANGER: Inhibition of human BT-474 cell growth in a cell viability assay.

LAMA-84 = type: functional, cell-based;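 further: growth inhibition of LAMA-84 cells, read out with a cell viability assay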
Description: SANGER: Inhibition of human LAMA-84 cell growth in a cell viability assay.

HEL = type: functional, cell-based
Description: SANGER: Inhibition of human HEL cell growth in a cell viability assay.

JAR = type: functional, cell-based
Description: SANGER: Inhibition of human JAR cell growth in a cell viability assay.

TE-10 = type: functional, cell-based
Description: SANGER: Inhibition of human TE-10 cell growth in a cell viability assay.

CTV-1 = type: functional, cell-based
Description: SANGER: Inhibition of human CTV-1 cell growth in a cell viability assay.

HL-60 = type: functional, cell-based
Description: SANGER: Inhibition of human HL-60 cell growth in a cell viability assay.

MOLT-16 = type: functional, cell-based
Description: SANGER: Inhibition of human MOLT-16 cell growth in a cell viability assay.

ES4 = type: functional, cell-based
Description: SANGER: Inhibition of human ES4 cell growth in a cell viability assay.

D-263MG = type: functional, cell-based
Description: SANGER: Inhibition of human D-263MG cell growth in a cell viability assay.

COc1cc(Nc2c(C#N)cnc3cc(OCCCN4CCN(C)CC4)c(OC)cc23)c(Cl)cc1Cl [BOSUTINIB] was tested, and the IC50 (LNCaP-Clone-FGC) was > 2000 nM, the IC50 (C2BBe1) was > 2000 nM and the IC50 (NTERA-2-cl-D1) was > 2000 nM. For the same compound, the IC50 (KNS-42) was > 2000 nM, the IC50 (CCRF-CEM) was > 2000 nM and the IC50 (SNU-5) was > 2000 nM. For the same compound, the IC50 (KM12) was > 2000 nM, the IC50 (LB1047-RCC) was 1240 nM and the IC50 (L-428) was > 2000 nM. The IC50 (OS-RC-2) was > 2000 nM, the IC50 (TE-6) was > 2000 nM and the IC50 (TE-11) was > 2000 nM. The IC50 (MHH-NB-11) was 1310 nM, the IC50 (A498) was 1400 nM and the IC50 (EW-1) was > 2000 nM. For the same compound, the IC50 (KM-H2) was > 2000 nM, the IC50 (SK-LMS-1) was > 2000 nM and the IC50 (BE-13) was 486 nM. For the same compound, the IC50 (HuTu80) was > 2000 nM, the IC50 (IST-MEL1) was > 2000 nM and the IC50 (RH-1) was > 2000 nM. For the same compound, the IC50 (ES5) was 1870 nM, the IC50 (NCI-H82) was > 2000 nM and the IC50 (BV-173) was 508 nM. For the same compound, the IC50 (C8166) was > 2000 nM, the IC50 (KMOE-2) was > 2000 nM and the IC50 (A388) was > 2000 nM. The IC50 (KARPAS-45) was 925 nM, the IC50 (KY821) was 1130 nM and the IC50 (NOMO-1) was > 2000 nM. The IC50 (DSH1) was > 2000 nM, the IC50 (LXF-289 cell line) was > 2000 nM and the IC50 (BB49-HNC) was > 2000 nM. The IC50 (COLO-684) was > 2000 nM, the IC50 (MMAC-SF) was > 2000 nM and the IC50 (OCUB-M) was > 2000 nM. The IC50 (SCH) was > 2000 nM, the IC50 (ETK-1) was > 2000 nM and the IC50 (COLO-824) was > 2000 nM. For the same compound, the IC50 (KS-1) was > 2000 nM, the IC50 (LB831-BLC) was > 2000 nM and the IC50 (EW-13) was > 2000 nM. The IC50 (MEG-01) was 512 nM, the IC50 (MN-60) was > 2000 nM and the IC50 (Mo) was > 2000 nM. For the same compound, the IC50 (SK-UT-1) was > 2000 nM, the IC50 (RCC10RGB) was > 2000 nM and the IC50 (DOHH-2) was > 2000 nM. For the same compound, the IC50 (KE-37) was 495 nM, the IC50 (8-MG-BA) was > 2000 nM and the IC50 (MFM-223) was > 2000 nM. For the same compound, the IC50 (GT3TKB) was > 2000 nM, the IC50 (A704) was > 2000 nM and the IC50 (COR-L88) was > 2000 nM. For the same compound, the IC50 (NCI-H1304) was > 2000 nM, the IC50 (A3-KAW) was 792 nM and the IC50 (BT-474) was > 2000 nM. The IC50 (LAMA-84) was 287 nM, the IC50 (HEL) was > 2000 nM and the IC50 (JAR) was 1490 nM. The IC50 (TE-10) was > 2000 nM, the IC50 (CTV-1) was 164 nM and the IC50 (HL-60) was > 2000 nM. The IC50 (MOLT-16) was > 2000 nM, the IC50 (ES4) was 1210 nM and the IC50 (D-263MG) was > 2000 nM.
Cc1nc(Nc2ncc(C(=O)Nc3c(C)cccc3Cl)s2)cc(N2CCN(CCO)CC2)n1 [DASATINIB] was tested, and the IC50 (LNCaP-Clone-FGC) was > 1280 nM, the IC50 (C2BBe1) was 83.1 nM and the IC50 (NTERA-2-cl-D1) was 123 nM. For the same compound, the IC50 (KNS-42) was 1240 nM, the IC50 (CCRF-CEM) was > 1280 nM and the IC50 (SNU-5) was > 1280 nM. The IC50 (KM12) was > 1280 nM, the IC50 (LB1047-RCC) was 9.89 nM and the IC50 (L-428) was > 1280 nM. The IC50 (OS-RC-2) was 20.3 nM, the IC50 (TE-6) was 1210 nM and the IC50 (TE-11) was 78.6 nM. For the same compound, the IC50 (MHH-NB-11) was > 1280 nM, the IC50 (A498) was 72.8 nM and the IC50 (EW-1) was > 1280 nM. The IC50 (KM-H2) was > 1280 nM, the IC50 (SK-LMS-1) was > 1280 nM and the IC50 (BE-13) was > 1280 nM. The IC50 (HuTu80) was 314 nM, the IC50 (IST-MEL1) was 135 nM and the IC50 (RH-1) was > 1280 nM. For the same compound, the IC50 (ES5) was > 1280 nM, the IC50 (NCI-H82) was > 1280 nM and the IC50 (BV-173) was < 5 nM. The IC50 (C8166) was > 1280 nM, the IC50 (KMOE-2) was > 1280 nM and the IC50 (A388) was 50.9 nM. The IC50 (KARPAS-45) was > 1280 nM, the IC50 (KY821) was > 1280 nM and the IC50 (NOMO-1) was > 1280 nM. The IC50 (DSH1) was 240 nM, the IC50 (LXF-289 cell line) was 39.6 nM and the IC50 (BB49-HNC) was 386 nM. The IC50 (COLO-684) was > 1280 nM, the IC50 (MMAC-SF) was > 1280 nM and the IC50 (OCUB-M) was 1040 nM. The IC50 (SCH) was > 1280 nM, the IC50 (ETK-1) was 28.3 nM and the IC50 (COLO-824) was > 1280 nM. For the same compound, the IC50 (KS-1) was 27.3 nM, the IC50 (LB831-BLC) was 46.1 nM and the IC50 (EW-13) was > 1280 nM. For the same compound, the IC50 (MEG-01) was < 5 nM, the IC50 (MN-60) was > 1280 nM and the IC50 (Mo) was > 1280 nM. The IC50 (SK-UT-1) was > 1280 nM, the IC50 (RCC10RGB) was 491 nM and the IC50 (DOHH-2) was 17.2 nM. The IC50 (KE-37) was > 1280 nM, the IC50 (8-MG-BA) was 155 nM and the IC50 (MFM-223) was > 1280 nM. The IC50 (GT3TKB) was > 1280 nM, the IC50 (A704) was 14.9 nM and the IC50 (COR-L88) was > 1280 nM. For the same compound, the IC50 (NCI-H1304) was > 1280 nM, the IC50 (A3-KAW) was 985 nM and the IC50 (BT-474) was > 1280 nM. For the same compound, the IC50 (LAMA-84) was < 5 nM, the IC50 (HEL) was > 1280 nM and the IC50 (JAR) was > 1280 nM. The IC50 (TE-10) was 63.6 nM, the IC50 (CTV-1) was < 5 nM and the IC50 (HL-60) was > 1280 nM. The IC50 (MOLT-16) was > 1280 nM, the IC50 (ES4) was 1050 nM and the IC50 (D-263MG) was 362 nM.
